Data taken from US10456365B2, “Methods and formulations for supporting and promoting bone health” (Primus Pharmaceuticals, Inc., priority 2016, dated 2019).

Assays:
Type in all cases: cell-based, mouse (C57BL/6)
[1] = test system: differentiation of bone marrow cells to adipocytes; assay: Adipogenesis in bone marrow cell culture
Protocol: C57BL/6 cells were prepared as 1×10^6/ml per well. These cells were cultured using 12-well plates in DMEM containing 10% FBS, 1% penicillin-steptomycin in the presence or absence of dexamethasone (1 μM/ml) and 3-isobutyl-q-methylxanthine (0.5 mM/ml) with either vehicle or β-Caryophyllene (0.1-100 μM). Medium was replaced containing insulin (10 μg/ml) without dexamethasone and 3-isobutyl-q-methylxanthine, with either the presence or absence of β-Caryophyllene (0.1-100 μM) for four days in CO2 incubator (37° C.). In other experiments, the cells were cultured without β-Caryophyllene for an additional four days. After culture, the adipocytes were stained and counted.
Bone marrow cells (1×10^6 cells/well/ml in 12-well plates) were cultured for 3 days in DMEM containing 10% FBS, 1% penicillin-streptomycin (P/S; 10,000 U/L) in the presence or absence of the differentiation medium (DM) [dexamethasone (1 μM/ml of medium) and 3-isobutyl-1-methylxanthine (IBMX; 0.5 mM/ml of medium)] with either vehicle or β-caryophyllene (0.1-100 μM). […] After culture, the medium was removed, and adipocytes were stained with Oil Red O. Adipocytes were counted by light microscopy. For quantification, the dye was extracted with 0.2 ml of isopropanol for 1 minute, and the absorbance (490 nm) was read using a Spectra Count microplate photometer.

osteoclastogenesis = assay: Osteoclastogenesis in bone marrow cell culture
Protocol: C57BL/6 cells were prepared as 2×10^5/ml per well in 24-well plates. Cells were cultured in DMEM with 10% FBS and 1% penicillin-steptomycin in water-saturated atmosphere containing 5% CO2 and 95% air at 37° C. Cells were cultured with or without Tumor necrosis factor-α (5 ng/ml) for 3 days in the presence or absence of β-Caryophyllene (0.1-100 μM). Medium was replaced and cultures were maintained for an additional 4 days. In other experiments, the cells were cultured for 3 days and then placed in medium without β-Caryophyllene for an additional 4 days. Cells were stained with a marker enzyme of osteoclasts and washed with phosphate buffered sale solution and foxed with 10% neutralized formalin-phosphate for 10 minutes. The cells were stained with TRACP staining and incubated for 90 minutes. TRACP—positive cells containing three or more nuclei were counted as osteoclast-like cells.

[2] = test system: osteoblastic mineralization; assay: Mineralization in bone marrow culture
Protocol: C57BL/6 cells were prepared as 1×10^6/ml per well in 12-well plates. Cells were cultured in either the presence or absence of DMEM with mineralization medium containing ascorbic acid (100 μg/ml) and 4 mM β-glycerophosphate in DMEM with 10% FBS and 1% penicillin-steptomycin. […] After culture, the cells were washed and stained. After elution with 10% cetylpyridinium chloride solution, the absorbance at 570 nm on a microtiter plate reader.

C=C1CC/C=C(\C)CC[C@@H]2[C@@H]1CC2(C)C [β-Caryophyllene]
differentiation of bone marrow cells to adipocytes ([1]; 0.1-100 μM, 7 days, differentiation medium with or without insulin (FIG. 1)): suppressed differentiation of from bone marrow cells to adipocytes
differentiation of bone marrow cells to adipocytes ([1]; C57BL/6 cells cultured for 7 days with or without β-Caryophyllene): suppressed differentiation of bone marrow cells to adipocytes
osteoclastogenesis (osteoclastogenesis; 7 days, medium containing Tumor necrosis factor-α): suppressed osteoclastogenesis
osteoclastogenesis (osteoclastogenesis; cultured in Tumor necrosis factor-α with β-Caryophyllene, then without β-Caryophyllene for additional 4 days): also exhibited suppression of osteoclastogenesis
osteoblastic mineralization ([2]; 18 days, mineralization medium): stimulated osteoblastic mineralization
osteoblastic mineralization ([2]; β-Caryophyllene for 7 days, then medium without it for additional 11 days): Stimulation was also seen
